Measurements as given in ChEMBL document CHEMBL1155535, “Synthesis and biological evaluation of tricyclic anilinopyrimidines as IKKbeta inhibitors” (Bioorg Med Chem Lett, 2010).
In brackets after ≈: the same amount, converted by molar mass.

What was measured:
[1] = test system: LoVo; experiment: Cytotoxicity against human LoVo cells assessed as growth inhibition; format: functional, cell-based
[2] = Membrane permeability by PAMPA assay
[3] = target: T1, Inhibitor of nuclear factor kappa-B kinase subunit beta (Homo sapiens, UniProt O14920); experiment: Inhibition of IKK-beta expressed in human HeLa cells transfected with pNFkappaB-luciferase assessed inhibition of TNF-alpha-induced NF-kappaB expression by luciferase reporter gene assay; format: cell-based
T1 sequence (O14920 whole entry): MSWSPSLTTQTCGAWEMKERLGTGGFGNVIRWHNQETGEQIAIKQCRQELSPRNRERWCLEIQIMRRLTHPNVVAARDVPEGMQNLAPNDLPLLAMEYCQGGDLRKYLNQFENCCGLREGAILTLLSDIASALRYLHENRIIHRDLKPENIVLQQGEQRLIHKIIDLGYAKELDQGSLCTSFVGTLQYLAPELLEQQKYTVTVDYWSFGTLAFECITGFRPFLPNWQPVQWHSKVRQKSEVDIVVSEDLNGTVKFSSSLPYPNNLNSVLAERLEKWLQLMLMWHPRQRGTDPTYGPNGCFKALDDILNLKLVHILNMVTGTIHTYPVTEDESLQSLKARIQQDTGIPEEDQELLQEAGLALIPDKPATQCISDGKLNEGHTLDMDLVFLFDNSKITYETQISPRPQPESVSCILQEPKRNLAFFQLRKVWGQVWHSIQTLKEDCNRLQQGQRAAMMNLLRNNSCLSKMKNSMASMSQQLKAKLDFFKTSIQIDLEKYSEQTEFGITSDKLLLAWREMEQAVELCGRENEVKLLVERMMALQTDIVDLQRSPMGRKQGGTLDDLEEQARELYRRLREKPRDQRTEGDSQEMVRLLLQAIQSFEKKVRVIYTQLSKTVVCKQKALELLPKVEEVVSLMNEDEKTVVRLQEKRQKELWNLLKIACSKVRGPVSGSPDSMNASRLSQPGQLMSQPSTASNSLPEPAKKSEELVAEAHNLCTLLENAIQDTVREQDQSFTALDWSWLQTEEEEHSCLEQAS

[4] = target: T1, Inhibitor of nuclear factor kappa-B kinase subunit beta; experiment: Inhibition of FLAG-tagged IKK-beta after 30 mins
[5] = Aqueous solubility in at pH 7.4
[6] = Apparent permeability from basolateral to apical side in human Caco-2 cells
[7] = Apparent permeability from apical to basolateral side in human Caco-2 cells

| Compound | IC50 [1] [nM] | Papp [2] [×10⁻⁶ cm/s] | IC50 [3] [nM] | IC50 [4] [nM] | solubility [5] [µg/mL] | Papp B→A [6] [×10⁻⁶ cm/s] | Papp A→B [7] [×10⁻⁶ cm/s] |
| --- | --- | --- | --- | --- | --- | --- | --- |
| COc1ccc(-c2ccnc(Nc3ccc(S(N)(=O)=O)cc3)n2)cc1 | 2550 | < 0.01 | 640 | 40 | 2.3 (≈ 6.45 µM) |  |  |
| COc1ccc2c(c1)CCc1cnc(Nc3ccc(S(N)(=O)=O)cc3)nc1-2 | 750 | 1.8 | 420 | 550 | < 1 |  |  |
| CC(C)(C)CC(=O)Nc1ccc(-c2ccnc(Nc3ccc(S(N)(=O)=O)cc3)n2)cc1 | 790 | 0.6 | 2460 | 10 | < 1 |  |  |
| CC(C)=CC(=O)Nc1ccc2c(c1)CCc1cnc(Nc3ccc(S(N)(=O)=O)cc3)nc1-2 | 560 |  | 8250 | 1590 |  |  |  |
| NS(=O)(=O)c1ccc(Nc2ncc3c(n2)-c2ccc(NC(=O)C4CCCC4)cc2CC3)cc1 | 830 |  | 1570 | 2200 |  |  |  |
| CC(C)C(=O)Nc1ccc2c(c1)CCc1cnc(Nc3ccc(S(N)(=O)=O)cc3)nc1-2 | 660 |  | 1460 | 1110 |  |  |  |
| COC(=O)CC(=O)Nc1ccc2c(c1)CCc1cnc(Nc3ccc(S(N)(=O)=O)cc3)nc1-2 | 620 |  |  | 280 |  |  |  |
| COc1ccc(CC(=O)Nc2ccc3c(c2)CCc2cnc(Nc4ccc(S(N)(=O)=O)cc4)nc2-3)cc1 | 730 |  | 1600 | 1830 |  |  |  |
| CC(C)CC(=O)Nc1ccc2c(c1)CCc1cnc(Nc3ccc(S(N)(=O)=O)cc3)nc1-2 | 380 |  | 6400 | 1940 |  |  |  |
| NS(=O)(=O)c1ccc(Nc2nccc(-c3ccc(NC(=O)Cc4ccccc4)cc3)n2)cc1 | 180 | < 0.01 | 4470 | 50 | 1 (≈ 2.18 µM) |  |  |
| NS(=O)(=O)c1ccc(Nc2ncc3c(n2)-c2ccccc2CC3)cc1 | 1050 | 2.92 | 1430 | 1830 | 7 (≈ 19.9 µM) |  |  |
| NS(=O)(=O)c1ccc(Nc2ncc3c(n2)-c2ccccc2CCC3)cc1 | 4180 |  | 4060 |  |  |  |  |
| NS(=O)(=O)c1ccc(Nc2ncc3c(n2)-c2ccc(NC(=O)Cc4cccs4)cc2CC3)cc1 | 290 | 0.51 | 830 | 510 | 6 (≈ 12.2 µM) |  |  |
| NS(=O)(=O)c1ccc(Nc2ncc3c(n2)-c2ccc(NC(=O)Cc4ccsc4)cc2CC3)cc1 | 490 |  | 970 | 310 |  |  |  |
| NS(=O)(=O)c1ccc(Nc2nccc(-c3ccccc3)n2)cc1 | 3280 | 2.26 |  | 20200 | 1 (≈ 3.06 µM) |  |  |
| NS(=O)(=O)c1ccc(Nc2nccc(-c3ccsc3)n2)cc1 | 2620 |  | 1700 | 180 |  |  |  |
| NS(=O)(=O)c1ccc(Nc2ncc3c(n2)-c2ccc(NC(=O)Cc4ccccc4)cc2CC3)cc1 | 190 | 3.37 | 1790 | 2380 | 9 (≈ 18.5 µM) |  |  |
| NS(=O)(=O)c1ccc(Nc2nccc(-c3ccc(NC(=O)Cc4cccs4)cc3)n2)cc1 | 250 | 0.3 | 6910 | 20 | < 1 |  |  |
| CN(C)CCCNS(=O)(=O)c1ccc(Nc2ncc3c(n2)-c2ccsc2CC3)cc1 | 1100 |  | 620 | 780 |  |  |  |
| O=S(=O)(NCCO)c1ccc(Nc2nccc(-c3ccsc3)n2)cc1 | 4110 |  | 3390 | 130 |  |  |  |
| O=S(=O)(NCCO)c1ccc(Nc2ncc3c(n2)-c2ccsc2CC3)cc1 | 800 |  | 1960 | 1220 |  |  |  |
| NS(=O)(=O)c1ccc(Nc2ncc3c(n2)-c2ccsc2CC3)cc1 | 330 | 0.38 | 800 | 790 | < 1 | 20.7 | 34 |
| CN(C)CCCNS(=O)(=O)c1ccc(Nc2nccc(-c3ccsc3)n2)cc1 | 3380 |  | 1060 | 170 |  |  |  |
| CN(C)CCNS(=O)(=O)c1ccc(Nc2nccc(-c3ccsc3)n2)cc1 | 2810 | 2.4 | 770 | 230 | > 100 | 13.2 | < 1 |
| CN(C)CCNS(=O)(=O)c1ccc(Nc2ncc3c(n2)-c2ccsc2CC3)cc1 | 680 | 1.54 | 510 | 770 | 36 (≈ 83.8 µM) | 3.08 | < 1 |
| CC(C)(C)CC(=O)Nc1ccc2c(c1)CCc1cnc(Nc3ccc(S(N)(=O)=O)cc3)nc1-2 | 370 | 2.3 | 1360 | 820 | 9 (≈ 19.3 µM) |  |  |
| NS(=O)(=O)c1ccc(Nc2ncc3c(n2)-c2ccc(NC(=O)c4ccco4)cc2CC3)cc1 | 1060 |  |  | 2230 |  |  |  |
| Cc1ccc(-c2ccnc(Nc3ccc(S(N)(=O)=O)cc3)n2)s1 | 1660 |  | 1710 | 19 | 3 (≈ 8.66 µM) |  |  |
